Biological target: GST-tagged truncated human mutant G2019S LRRK2 (Homo sapiens, UniProt Q5S007, G2019S)
Assay: LRRK2 G2019S Km ATP LanthaScreen assay
Assay type: biochemical
Conditions: 134 μM ATP (Km ATP), LRRKtide substrate, mean IC50 values; read-out: LRRK2 pIC50 (converted)
Experimental: Unless otherwise noted, all reactions are magnetically stirred. Unless otherwise noted, when diethyl ether is used in the experiments described below, it is Fisher ACS certified material and is stabilized with BHT. Unless otherwise noted, “concentrated” and/or “solvent removed under reduced pressure” means evaporating the solvent from a solution or mixture using a rotary evaporator or vacuum pump. Unless otherwise noted, flash chromatography is carried out on a Teledyne Isco (Lincoln, NE), Analogix (Burlington, WI), or Biotage (Stockholm, SWE) automated chromatography system using a commercially available cartridge as the column. Columns may be purchased from Teledyne Isco, Analogix, Biotage, Varian (Palo Alto, CA), or Supelco (Bellefonte, PA) and are usually filled with silica gel as the stationary phase. Reverse phase prep-HPLC conditions, where used, can be found at the end of each experimental section. Aqueous solutions were concentrated on a Genevac (Ipswich, ENG) or by freeze-drying/lyophilization. Unless otherwise noted, all LRRK2 pIC50 data presented in tables refers to the LRRK2 G2019S Km ATP LanthaScreen™ assay (Life Technologies Corp., Carlsbad, CA) that is described in the Biological Assay section.
The IC50 values reported herein were measured as follows.
Biological Assay: LRRK2 Km ATP LanthaScreen™ Assay
The LRRK2 kinase activity reported herein as IC50 values was determined with LanthaScreen™ technology from Life Technologies Corporation (Carlsbad, CA) using GST-tagged truncated human mutant G2019S LRRK2 in the presence of the fluorescein-labeled peptide substrate LRRKtide, also from Life Technologies. The data presented for the Km ATP LanthaScreen™ Assay represents mean IC50 values based on several test results and may have reasonable deviations depending on the specific conditions and reagents used. Assays were performed in the presence of 134 μM ATP (Km ATP). Upon completion, the assay was stopped and phosphorylated substrate detected with a terbium (Tb)-labeled anti-pERM antibody (cat. no. PV4898). The compound dose response was prepared by diluting a 10 mM stock of compound to a maximum concentration of 9.99 μM in 100% dimethylsulfoxide followed by custom fold serial dilution in dimethylsulfoxide nine times. Twenty nanoliters of each dilution was spotted via a Labcyte Echo onto a 384-well black-sided plate (Corning 3575) followed by 15 μl of a 1.25 nM enzyme solution in 1× assay buffer (50 mM Tris pH 8.5, 10 mM MgCl2, 0.01% Brij-35, 1 mM EGTA, 2 mM dithiothreitol, 0.05 mM sodium orthovanadate). Following a 15-minute incubation at room temperature, the kinase reaction was started with the addition of 5 μl of 400 nM fluorescein-labeled LRRKtide peptide substrate and 134 μM ATP solution in 1× assay buffer. The reaction was allowed to progress at ambient temperature for 90 minutes. The reaction was then stopped by the addition of 20 μl of TR-FRET Dilution Buffer (Life Technologies, Carlsbad, CA) containing 2 nM Tb-labeled anti-phospho LRRKtide antibody and 10 mM EDTA (Life Technologies, Carlsbad, CA). After an incubation of 1 hour at room temperature, the plate was read on an EnVision multimode plate reader (Perkin Elmer, Waltham, MA) with an excitation wavelength of 337 nm (Laser) and a reading emission at both 520 and 495 nm. Compound IC50s were interpolated from nonlinear regression best fits of the log of the final compound concentration, plotted as a function of the 520/495-nm emission ratio using Activity base. Abase uses a 4 parameter (4P) logistic fit based on the Levenberg-Marquardt algorithm.

Structure (SMILES) | IC50
CCC1(N2CCN(c3cc4nc(Nc5cnn(C6(C)CC6)c5Cl)ncc4cc3Cl)CC2)COC1 [Ex-4.29, 6-chloro-N-[5-chloro-1-(1-methylcyclopropyl)-1H-pyrazol-4-yl]-7-[4-(3-ethyloxetan-3-yl)piperazin-1-yl]quinazolin-2-amine] | 5.28 nM
Cn1ncc(Nc2ncc3ccc(N4C(=O)C5CCC4C5)cc3n2)c1C(F)F (single isomer, unassigned) [Ex-4.6, 2-(2-{[5-(difluoromethyl)-1-methyl-1H-pyrazol-4-yl]amino}quinazolin-7-yl)-2-azabicyclo[2.2.1]heptan-3-one] | 34.9 nM
CC(C)(O)Cn1ncc(Nc2ncc3cc(Cl)c(N4CCC(O)CC4)cc3n2)c1Cl [Ex-3.11, 1-(6-chloro-2-{[5-chloro-1-(2-hydroxy-2-methylpropyl)-1H-pyrazol-4-yl]amino}quinazolin-7-yl)piperidin-4-ol] | 0.488 nM
CC1(n2ncc(Nc3ncc4cc(Cl)c(N5CCn6cnnc6C5)cc4n3)c2Cl)CC1 [Ex-4.45, 6-chloro-N-[5-chloro-1-(1-methylcyclopropyl)-1H-pyrazol-4-yl]-7-(5,6-dihydro[1,2,4]triazolo[4,3-a]pyrazin-7(8H)-yl)quinazolin-2-amine] | 1.27 nM
Cn1ncc(Nc2ncc3cc(Cl)c(N4CCN(C5(C)COC5)CC4)cc3n2)c1Cl [Ex-4.47, 6-chloro-N-(5-chloro-1-methyl-1H-pyrazol-4-yl)-7-[4-(3-methyloxetan-3-yl)piperazin-1-yl]quinazolin-2-amine] | 8.56 nM
CCn1ncc(Nc2ncc3ccc(N4C(=O)C5CCC4C5)cc3n2)c1C (stereo not shown) [Ex-7.19, 2-{2-[(1-ethyl-5-methyl-1H-pyrazol-4-yl)amino]quinazolin-7-yl}-2-azabicyclo[2.2.1]heptan-3-one] | 2.53 nM
Cc1nsc(Nc2ncc3ccc(N4C(=O)C5CCC4C5)cc3n2)c1C (stereo not shown) [Ex-8.14, 2-{2-[(3,4-dimethyl-1,2-thiazol-5-yl)amino]quinazolin-7-yl}-2-azabicyclo[2.2.1]heptan-3-one] | 7.79 nM
CCn1ncc(Nc2ncc3ccc(N4C(=O)OCC4C4CC4)cc3n2)c1C (single isomer, unassigned) [Ex-7.15, (R) or (S) 4-cyclopropyl-3-{2-[(1-ethyl-5-methyl-1H-pyrazol-4-yl)amino]quinazolin-7-yl}-1,3-oxazolidin-2-one] | 9.26 nM
Cc1c(Nc2ncc3cc(Cl)c(N4CCN(C5COCC5O)CC4)cc3n2)cnn1C1CC1(F)F (single isomer, unassigned) [Ex-6.39, (3S,4S) or (3R,4R) 4-[4-(6-chloro-2-{[1-(2,2-(R) or (S)difluorocyclopropyl)-5-methyl-1H-pyrazol-4-yl]amino}quinazolin-7-yl)piperazin-1-yl]oxolan-3-ol] | 0.65 nM
F[C@H]1CN(C2COC2)CC[C@@H]1n1ncc(Nc2ncc3cc(Cl)c(N4CCC5(CC4)COC5)cc3n2)c1Cl [Ex-1.4, 6-chloro-N-{5-chloro-1-[(3S,4S)-3-fluoro-1-(oxetan-3-yl)piperidin-4-yl]-1H-pyrazol-4-yl}-7-(2-oxa-7-azaspiro[3.5]nonan-7-yl)quinazolin-2-amine] | 1.54 nM
CC1(N2CCN(c3cc4nc(Nc5cnn(C6CC6(F)F)c5Cl)ncc4cc3Cl)CC2)COCC1O (single isomer, unassigned) [Ex-6.2, (3S,4S) or (3R,4R) 4-(4-(6-chloro-2-((5-chloro-1-(2,2-(R) or (S)difluorocyclopropyl)-1H-pyrazol-4-yl)amino)quinazolin-7-yl)piperazin-1-yl)-4-methyltetrahydrofuran-3-ol] | 0.08 nM
C[C@H]1COC(=O)N1c1ccc2cnc(Nc3ccns3)nc2c1 [Ex-8.8, (4S)-4-methyl-3-{2-[(1,2-thiazol-5-yl)amino]quinazolin-7-yl}-1,3-oxazolidin-2-one] | 5.08 nM
Cc1c(Nc2ncc3cc(Cl)c(N4CCN(C5CCCC5C#N)CC4)cc3n2)cnn1C1CC1 (single isomer, unassigned) [Ex-1.7, (3S,4S or 3R,4R)-2-(4-{6-chloro-2-[(1-cyclopropyl-5-methyl-1H-pyrazol-4-yl)amino]quinazolin-7-yl}piperazin-1-yl)cyclopentane-1-carbonitrile] | 6.91 nM
Cc1c(Nc2ncc3ccc(N4[C@H](C)CC[C@H]4C)cc3n2)cnn1CCF [Ex-1.12, (2R,5S or 2,5R)-7-[2,5-dimethylpyrrolidin-1-yl]-N-[1-(2-fluoroethyl)-5-methyl-1H-pyrazol-4-yl]quinazolin-2-amine] | 20.2 nM
C[C@H]1COC(=O)N1c1ccc2cnc(Nc3cn(C)nc3C(F)(F)F)nc2c1 [Ex-7.7, (4S)-4-methyl-3-(2-{[1-methyl-3-(trifluoromethyl)-1H-pyrazol-4-yl]amino}quinazolin-7-yl)-1,3-oxazolidin-2-one] | 1.92 nM
CCn1ncc(Nc2ncc3ccc(N4C(=O)[C@@H]5CC[C@H]4C5)nc3n2)c1C (single isomer, unassigned) [Ex-15.3, (1S,4R) or (1R,4S)-2-{2-[(1-ethyl-5-methyl-1H-pyrazol-4-yl)amino]pyrido[2,3-d]pyrimidin-7-yl}-2-azabicyclo[2.2.1]heptan-3-one] | 4.43 nM
CC(C)Nc1ccc2cnc(Nc3cnn(C4CCN(C5(C)COC5)CC4)c3Cl)nc2c1Cl [Ex-3.53, 8-chloro-N~2~-{5-chloro-1-[1-(3-methyloxetan-3-yl)piperidin-4-yl]-1H-pyrazol-4-yl}-N~7~- (propan-2-yl)quinazoline-2,7-diamine] | 6.88 nM
C[C@@]1(O)COCC12CCN(c1cc3nc(Nc4cnn(C5CC5)c4Cl)ncc3cc1Cl)CC2 [Ex-3.5] | 1.54 nM
CCn1ncc(Nc2ncc3cc(Cl)c(N4CCN(C5(C)COC5)CC4)cc3n2)c1Cl [Ex-4.68, 6-chloro-N-(5-chloro-1-ethyl-1H-pyrazol-4-yl)-7-[4-(3-methyloxetan-3-yl)piperazin-1-yl]quinazolin-2-amine] | 3.38 nM
C[C@H]1CN(c2cc3nc(Nc4cnn(C5(C)CC5)c4Cl)ncc3cc2Cl)CCN1C1COC1 [Ex-4.41, 6-chloro-N-[5-chloro-1-(1-methylcyclopropyl)-1H-pyrazol-4-yl]-7-[(3S)-3-methyl-4-(oxetan-3-yl)piperazin-1-yl]quinazolin-2-amine] | 1.91 nM
Cc1c(Nc2ncc3ccc(N(C)C4COC4)cc3n2)cnn1C1CCOCC1 [Ex-1.47, N-7-methyl-N-2-[5-methyl-1-(oxan-4-yl)-1H-pyrazol-4-yl]-N-7-(oxetan-3-yl)quinazoline-2,7-diamine] | 38.8 nM
CC1(N2CCN(c3cc4nc(Nc5ccn(CC(F)(F)F)n5)ncc4cc3Cl)CC2)COC1 [Ex-4.63, 6-chloro-7-[4-(3-methyloxetan-3-yl)piperazin-1-yl]-N-[1-(2,2,2-trifluoroethyl)-1H-pyrazol-3-yl]quinazolin-2-amine] | 28.3 nM
CC1(N2CCN(c3cc4nc(Nc5cnn(C6CC6)c5Cl)ncc4cc3Cl)CC2)COCC1O (single isomer, unassigned) [Ex-1.45, (3S,4S or 3R,4R)-4-(4-{6-chloro-2-[(5-chloro-1-cyclopropyl-1H-pyrazol-4-yl)amino]quinazolin-7-yl}piperazin-1-yl)-4-methyloxolan-3-ol] | 21.3 nM
Clc1cc2cnc(Nc3cnn(C45CC(C4)C5)c3Cl)nc2cc1N1CCC2(CCCO2)CC1 [Ex-3.40, N-[1-(bicyclo[1.1.1]pentan-1-yl)-5-chloro-1H-pyrazol-4-yl]-6-chloro-7-(1-oxa-8-azaspiro[4.5]decan-8-yl) quinazolin-2-amine] | 9.76 nM
Cn1ncc(Nc2ncc3cc(Cl)c(N4CCN(C5(C)COCC5O)CC4)cc3n2)c1Cl (single isomer, unassigned) [Ex-6.28, (3S,4S) or (3R,4R) 4-(4-{6-chloro-2-[(5-chloro-1-methyl-1H-pyrazol-4-yl)amino]quinazolin-7-yl}piperazin-1-yl)-4-methyloxolan-3-ol] | 0.381 nM

— patent US20230303540A1 (Merck Sharp & Dohme LLC, priority 2020, published 2023)
